Assay [1] addresses T1, Amine oxidase [copper-containing] 3 (Homo sapiens, UniProt Q16853).
T1 sequence (Q16853 whole entry): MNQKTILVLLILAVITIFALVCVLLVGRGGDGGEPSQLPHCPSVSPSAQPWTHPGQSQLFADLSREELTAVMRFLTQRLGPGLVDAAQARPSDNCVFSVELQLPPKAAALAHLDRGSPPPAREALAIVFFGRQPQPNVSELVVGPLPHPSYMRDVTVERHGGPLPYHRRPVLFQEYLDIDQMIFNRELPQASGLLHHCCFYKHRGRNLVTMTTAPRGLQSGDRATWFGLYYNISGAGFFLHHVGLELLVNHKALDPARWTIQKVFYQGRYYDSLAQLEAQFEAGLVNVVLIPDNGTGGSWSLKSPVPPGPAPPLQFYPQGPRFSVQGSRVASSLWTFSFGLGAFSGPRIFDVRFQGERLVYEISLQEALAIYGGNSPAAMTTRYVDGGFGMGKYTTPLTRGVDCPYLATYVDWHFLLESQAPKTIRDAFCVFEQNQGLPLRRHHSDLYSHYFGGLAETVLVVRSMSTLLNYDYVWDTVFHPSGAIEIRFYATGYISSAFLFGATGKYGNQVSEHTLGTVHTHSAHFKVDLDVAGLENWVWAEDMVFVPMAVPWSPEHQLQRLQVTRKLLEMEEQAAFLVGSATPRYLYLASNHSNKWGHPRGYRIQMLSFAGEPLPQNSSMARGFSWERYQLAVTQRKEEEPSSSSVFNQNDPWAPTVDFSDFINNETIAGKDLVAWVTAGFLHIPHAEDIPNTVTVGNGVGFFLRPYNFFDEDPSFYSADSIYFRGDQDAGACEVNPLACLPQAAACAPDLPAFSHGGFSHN
The assay is described as follows: Inhibition of human VAP1.

In assay [2] the target is Vascular endothelial growth factor receptor 2 (Homo sapiens, UniProt P35968). Put plainly: Inhibition of KDR (unknown origin).
A short description of assay [3]: Cytotoxicity against human U87MG cells assessed as inhibition of cell growth after 72 hrs by MTT assay. In kind it is functional, cell-based, U-87MG ATCC. The note with it: U-87 MG. A general note: Tetrazolium assays rely on reduction of a dye to a coloured formazan, in cell work by metabolically active cells.
Assay [4] relates to HT-29. The assay is described as follows: Ratio of foretinib IC50 to compound IC50 for human HT-29 cells. Type of assay: functional.
Assay [5] has as its target Hepatocyte growth factor receptor (Homo sapiens, UniProt P08581). The assay is described as follows: Inhibition of c-Met (unknown origin) using poly (Glu,Tyr)4:1 as substrate by homogeneous time-resolved fluorescence assay.
For assay [6], the target named is Platelet-derived growth factor receptor beta (Homo sapiens, UniProt P09619). The assay is described as follows: Inhibition of PDGFR beta (unknown origin).
For assay [7], the target named is Mast/stem cell growth factor receptor Kit (Homo sapiens, UniProt P10721). The assay is described as follows: Inhibition of c-Kit (unknown origin).
The target in assay [8] is Epidermal growth factor receptor (Homo sapiens, UniProt P00533). Put plainly: Inhibition of EGFR (unknown origin).
The test system of assay [9] is A549. The assay is described as follows: cells. The note with it: Homo sapiens, A549, 72 h.
Assay [10] in a line: cells. The note with it: Homo sapiens, NCI-H460, 72 h.
Assay [11] is described as follows: cells. The note with it: Homo sapiens, MKN-45, 72 h.
In assay [12] the target is T2, Receptor-type tyrosine-protein kinase FLT3 (Homo sapiens, UniProt P36888).
T2 sequence (P36888 whole entry): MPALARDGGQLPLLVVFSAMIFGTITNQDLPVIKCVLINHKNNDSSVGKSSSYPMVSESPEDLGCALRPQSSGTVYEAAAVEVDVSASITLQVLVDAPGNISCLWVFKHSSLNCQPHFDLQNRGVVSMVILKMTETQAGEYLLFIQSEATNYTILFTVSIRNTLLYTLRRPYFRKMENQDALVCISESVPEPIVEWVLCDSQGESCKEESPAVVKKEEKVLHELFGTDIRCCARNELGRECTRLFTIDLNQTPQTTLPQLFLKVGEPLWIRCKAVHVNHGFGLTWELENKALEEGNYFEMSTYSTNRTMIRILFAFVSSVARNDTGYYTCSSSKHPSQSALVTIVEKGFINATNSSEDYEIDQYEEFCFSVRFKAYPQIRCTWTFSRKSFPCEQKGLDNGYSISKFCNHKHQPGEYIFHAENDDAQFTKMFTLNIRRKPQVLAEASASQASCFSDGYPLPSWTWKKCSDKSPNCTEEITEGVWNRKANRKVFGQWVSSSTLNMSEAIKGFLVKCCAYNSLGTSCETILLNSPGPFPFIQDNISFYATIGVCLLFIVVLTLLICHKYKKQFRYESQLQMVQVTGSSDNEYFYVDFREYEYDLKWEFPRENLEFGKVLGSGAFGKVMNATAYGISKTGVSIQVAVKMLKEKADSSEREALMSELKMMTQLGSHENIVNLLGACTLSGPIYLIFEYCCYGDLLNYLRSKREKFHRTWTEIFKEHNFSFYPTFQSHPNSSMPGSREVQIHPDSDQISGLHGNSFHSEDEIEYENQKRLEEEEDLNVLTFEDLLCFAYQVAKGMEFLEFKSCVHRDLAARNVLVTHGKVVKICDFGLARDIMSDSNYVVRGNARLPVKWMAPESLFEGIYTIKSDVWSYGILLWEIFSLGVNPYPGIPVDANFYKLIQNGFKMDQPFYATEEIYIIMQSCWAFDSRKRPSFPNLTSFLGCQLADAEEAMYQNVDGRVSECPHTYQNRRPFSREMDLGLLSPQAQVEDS
Put plainly: Inhibition of Flt3 (unknown origin).

Assay [13] concerns HT-29. Put plainly: cells. The note with it: Homo sapiens, HT-29, 72 h.
The nature of assay [14]: Ratio of foretinib IC50 to compound IC50 for human H460 cells. Type of assay: functional.

Where only a bound is given, the exact number is not on record here.

Consider `O=c1ccc(=O)[nH][nH]1`, for which, in [1], inhibition was half-maximal at 20 nM (IC50).

In the case of `COc1cc2c(Oc3ccc(NC(=O)c4nn(-c5ccccc5C(F)(F)F)c(=O)cc4C)cc3F)ccnc2cc1OCCCN1CCOCC1`, the IC50 (in general, the point on the concentration scale where inhibition reaches its midpoint) in [2] is 425 nM; in assay [3] it was 1060 nM; in assay [5], 2.15 nM; in [6], 92.3 nM; in assay [7], 4.32 nM; in assay [8] it was more than 10 µM. Moreover, the IC50 in [9] worked out at 50 nM; in [10] it was 130 nM; in assay [11], 30 nM; in assay [12], 9.28 nM; in [13], 100 nM. In addition, the Ratio IC50 in [4] came out at 1.9; in assay [14], 1.5.

With `COc1cc2c(Oc3ccc(NC(=O)c4nn(-c5ccc(Cl)cc5)c(=O)cc4C)cc3F)ccnc2cc1OCCCN1CCOCC1`, the IC50 in [3] was 1970 nM; in assay [9] it was 330 nM; in [10], 380 nM; in assay [11], 70 nM; in [13], 260 nM.

With `COc1cc2c(Oc3ccc(NC(=O)c4nn(-c5cccc(F)c5)c(=O)cc4C)cc3F)ccnc2cc1OCCCN1CCCCC1`, the IC50 in assay [3] was found to be 1500 nM; in [9], 250 nM; in [10], 360 nM; in assay [11] it was 130 nM; in [13], 290 nM.

Take `COc1cc2c(Oc3ccc(NC(=O)c4nn(-c5ccc(Cl)cc5)c(=O)cc4C)cc3F)ccnc2cc1OCCCN1CCCC1`: the IC50 in assay [3] was 1430 nM; in assay [9], 230 nM; in [10], 360 nM; in assay [11] it was 150 nM; in assay [13], 260 nM.

As to `COc1cc2c(Oc3ccc(NC(=O)c4nn(-c5ccccc5C)c(=O)cc4C)cc3F)ccnc2cc1OCCCN1CCCC1`, the IC50 is 2960 nM in assay [3]; 1300 nM in assay [9]; 1590 nM in [10]; 760 nM in assay [11]; 1400 nM in assay [13].

Consider `COc1cc2c(Oc3ccc(NC(=O)c4nn(-c5ccccc5)c(=O)cc4C)cc3F)ccnc2cc1OCCCN1CCN(C)CC1`, for which the half-inhibitory concentration (IC50) in assay [3] is 2120 nM; in assay [9] it was 350 nM; in [10], 360 nM; in [11], 130 nM; in assay [13], 270 nM.

The values above are taken from ChEMBL document CHEMBL3286137, “Design, synthesis and structure-activity relationships of novel 4-phenoxyquinoline derivatives containing pyridazinone moiety as potential antitumor agents” (Eur J Med Chem, 2014).
